# Assay results published in article PMC10111420, “Optimization of Host Cell-Compatible, Antimicrobial Peptides Effective against Biofilms and Clinical Isolates of Drug-Resistant Bacteria” (ACS Infectious Diseases, 2023).
# Where a SMILES comes first, the peptide text is derived from it. [ ]: non-standard residue; d: D form.
# System: human RBCs
# Type: cell-based
# Method in brief: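 Washed human O+ erythrocytes (2 × 10^8 cells/mL stock, mixed 1:1) were incubated with peptide serially diluted from 100 μM in PBS for 1 h at 37 °C. Released hemoglobin was read at 410 nm in supernatant; fractional hemolysis calculated against 1% Triton (100%) and 0% lysis controls, averaged over ≥3 experiments.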
smiles,measurement,value
CC(C)C[C@@H](NC(=O)[C@@H](CCC(N)=O)NC(=O)[C@@H](CCCNC(=N)N)NC(=O)[C@@H](CCCNC(=N)N)NC(=O)[C@@H](C)NC(=O)[C@@H](Cc1c[nH]c2ccccc12)NC(=O)[C@@H](CCCNC(=N)N)NC(=O)[C@H](N)CCCNC(=N)N)C(=O)N[C@H](C)C(=O)N[C@H](Cc1ccccc1)C(=O)N[C@H](C)C(=O)N[C@H](Cc1ccccc1)C(=O)N[C@H](CCCNC(=N)N)C(=O)N[C@H](CCCNC(=N)N)C(N)=O [D-CONGA-Q7] (H-[dR][dR][dW][dA][dR][dR][dQ][dL][dA][dF][dA][dF][dR][dR]-NH2; N-terminus assumed),Hemolysis at 100 μM (fractional hemolysis),0.07
